What was measured:
[1] = tested on: Lolium spp. resistant to HRAC group A; assay: Greenhouse trial, post-emergence action against resistant ryegrass biotype (HRAC group A); type: in vivo; conditions: post-emergence (PO, BBCH 11), about 3 weeks after application
Method: (§1) In the standard design of the test, seeds of various broad-leaved weed and weed grass biotypes (origins) were sown in a 8-13 cm diameter pot filled with natural soil of a standard field soil (loamy silt; non-sterile) and covered with a covering soil layer of about 1 cm. The pots were then cultivated in a greenhouse (12-16 h light, temperature day 20-22° C., night 15-18° C.) until the time of application. The pots were treated on a laboratory track sprayer with spray liquors comprising the compositions according to the invention, mixtures of the prior art or components used individually. Application of the active compounds or active compound combinations formulated as WG, WP, EC or otherwise was carried out at the appropriate growth stages of the plants. The amount of water used for spray application was 100-600 l/ha. After the treatment, the plants were returned to the greenhouses.
(§2) About 3 weeks after the application, the soil action or/and foliar action was assessed visually according to a scale of 0-100% in comparison to an untreated comparative group: 0%=no noticable effect compared to the untreated comparative group; 100%=full effect compared to the untreated comparative group.
(§3) (Notes: the term “seeds” also includes vegetative propagation forms such as, for example, rhizome pieces; abbreviations used: h light=hours of illumination, g of AS/ha=grams of active substance per hectare, l/ha=liter per hectare, S=sensitive, R=resistant) • 1. Pre-emergence action against weeds: seeds of various broad-leaved weed and weed grass biotypes (origins) were sown in a 8-13 cm diameter pot filled with natural soil of a standard field soil (loamy silt; non-sterile) and covered with a covering soil layer of about 1 cm. The pots were then cultivated in a greenhouse (12-16 h light, temperature day 20-22° C., night 15-18° C.) until the time of application. […]

[2] = tested on: Lolium spp. resistant to HRAC group B; assay: Greenhouse trial, post-emergence action against resistant ryegrass biotype (HRAC group B); type: in vivo; conditions: post-emergence (PO, BBCH 11), about 3 weeks after application
Method: as §1, §2, §3

## O=C(Nc1ccc(F)cc1)c1cccc(Oc2cccc(C(F)(F)F)c2)n1 [(C) picolinafen, N-(4-fluorophenyl)-6-[3-(trifluoromethyl)phenoxy]-2-pyridinecarboxamide]
[1]; 25 g of AS/ha
  effect (visual scale 0-100% vs untreated): 10%
[2]; 25 g of AS/ha
  effect (visual scale 0-100% vs untreated): 5%

## Nc1c([N+](=O)[O-])ccc(Oc2ccccc2)c1Cl [(A) aclonifen, 2-chloro-6-nitro-3-phenoxybenzenamine]
[1]; 225 g of AS/ha
  effect (visual scale 0-100% vs untreated): 25%
[2]; 225 g of AS/ha
  effect (visual scale 0-100% vs untreated): 50%

## Cn1nc(C(F)(F)F)c(CS(=O)(=O)C2=NOC(C)(C)C2)c1OC(F)F [(B) pyroxasulfone, 3-[[[5-(difluoromethoxy)-1-methyl-3-(trifluoromethyl)-1H-pyrazol-4-yl]methyl]sulfonyl]-4,5-dihydro-5,5-dimethylisoxazole]
[1]; 13 g of AS/ha
  effect (visual scale 0-100% vs untreated): 45%
[2]; 13 g of AS/ha
  effect (visual scale 0-100% vs untreated): 70%

From patent US9357773B2, “Herbicidal agents containing aclonifen” (BAYER CROPSCIENCE AKTIENGESELLSCHAFT, priority 2012, dated 2016)
